Reference: patent EP2826473A1, “NOVEL USE OF PATCHOULOL” (Chengdu Huasun Group Inc., Ltd., priority 2012, dated 2013)
≈ marks a conversion by molar mass, not a printed value.

Experiments:
[1] = test system: Staphylococcus aureus MSSA; assay: in vitro bacteriostatic activity, agar dilution MIC; format: cell-based
[2] = test system: Staphylococcus epidermidis MSSE; assay: as above; format: cell-based; conditions: Staphylococcus epidermidis
Enterococcus faecalis = assay: as above; format: cell-based; conditions: Enterococcus faecalis
Enterococcus faecium = assay: as above; format: cell-based; conditions: Enterococcus faecium
[3] = test system: Staphylococcus aureus MRSA; assay: as above; format: cell-based
[4] = test system: Staphylococcus epidermidis MRSE; assay: as above; format: cell-based
[5] = test system: Staphylococcus epidermidis ATCC 12228; assay: in vitro bacteriostatic activity, agar dilution MIC, quality control strain; format: cell-based; conditions: Staphylococcus epidermidis, ATCC12228
Staphylococcus aureus = assay: in vitro bacteriostatic activity, agar dilution MIC, quality control strains; format: cell-based; conditions: Staphylococcus aureus, ATCC29213
[6] = test system: Methicillin-resistant Staphylococcus aureus ATCC 43300; assay: in vivo protection of model mice infected with methicillin-resistant Staphylococcus aureus; parameters: species or system KM mice; conditions: 4×10^5 units/kg, intraperitoneal injection once a day, within 14 days
Description: Tested strains' virulence assay: Methicillin-resistant Staphylococcus aureus was cultured in incubator at 37°C to reach exponential phase of growth, and then diluted with normal saline to obtain different gradient concentrations of bacterial liquid. Different concentrations of bacterial liquid were taken and mixed with equivalent 10% gastric mucin. Bacterial liquid was administrated to mice at 0.5 ml/20 g by intraperitoneal injection, and 5% gastric mucin was used as control. Under a premise of no control mice death, the death rate of mice within 14 days was recorded, and the minimum bacterial volumes leading to death of whole mice were measured, i.e. the minimum lethal dose (MLD) of bacterial liquid.
Pretesting of effective dose in vivo: Infection model mice infected by Methicillin-resistant Staphylococcus aureus were randomly divided into a few of groups (four mice per group), and a graded dose of each bacterial liquid was separately administrated to mice in each test group at one time per day. Moreover, administration of test drug was done one day ahead of schedule, and toxic substances were not eliminated until 0.5 h after administration on the second day. The death status of mice within 14 days was observed, to determine the dosage used in the formal experiment.
KM mice (grade SPF), half male and half female, weighing 18-22 g were randomly divided into […] groups with ten mice for each group, i.e. the group receiving vancomycin hydrochloride for injection; the groups receiving high, medium, and low doses of patchoulol; blank group; model group; and control group receiving gastric mucin. All of the mice were administrated by intraperitoneal injection once a day. The mice were administrated one day in advance and then attacked after 0.5h of administration on the second day, i.e. intraperitoneally injected with methicillin-resistant Staphylococcus aureus liquid containing 5% gastric mucin. Amongst, mice in the model group were given normal saline instead of test drug; mice in the blank group were not given drugs and attacked; mice in the gastric mucin control group were not given test drug, but only injected with 5% gastric mucin without bacteria.
The death status of mice within 14 days after injection of bacteria was observed, and its survival rate was recorded.

## CN[C@H](CC(C)C)C(=O)N[C@H]1C(=O)N[C@@H](CC(N)=O)C(=O)N[C@H]2C(=O)N[C@H]3C(=O)N[C@H](C(=O)N[C@H](C(=O)O)c4cc(O)cc(O)c4-c4cc3ccc4O)[C@H](O)c3ccc(c(Cl)c3)Oc3cc2cc(c3O[C@@H]2O[C@H](CO)[C@@H](O)[C@H](O)[C@H]2O[C@H]2C[C@](C)(N)[C@H](O)[C@H](C)O2)Oc2ccc(cc2Cl)[C@H]1O [vancomycin]
[1]; Staphylococcus aureus MSSA 12-11
  MIC: 1 µg/mL (≈ 0.69 µM)
[1]; Staphylococcus aureus MSSA 12-13
  MIC: 1 µg/mL (≈ 0.69 µM)
[1]; Staphylococcus aureus MSSA 12-14
  MIC: 1 µg/mL (≈ 0.69 µM)
[1]; Staphylococcus aureus MSSA 12-15
  MIC: 1 µg/mL (≈ 0.69 µM)
[1]; Staphylococcus aureus MSSA 12-16
  MIC: 1 µg/mL (≈ 0.69 µM)
[1]; Staphylococcus aureus MSSA 12-17
  MIC: 1 µg/mL (≈ 0.69 µM)
[1]; Staphylococcus aureus MSSA 12-18
  MIC: 1 µg/mL (≈ 0.69 µM)
[1]; Staphylococcus aureus MSSA 12-19
  MIC: 1 µg/mL (≈ 0.69 µM)
[1]; Staphylococcus aureus MSSA 12-21
  MIC: 1 µg/mL (≈ 0.69 µM)
[1]; Staphylococcus aureus, MSSA
  MIC: 1 µg/mL (≈ 0.69 µM)
[2]; Staphylococcus epidermidis MSSE 12-11
  MIC: 1 µg/mL (≈ 0.69 µM)
[2]; Staphylococcus epidermidis MSSE 12-12
  MIC: 2 µg/mL (≈ 1.38 µM)
[2]; Staphylococcus epidermidis MSSE 12-13
  MIC: 1 µg/mL (≈ 0.69 µM)
[2]; Staphylococcus epidermidis MSSE 12-14
  MIC: 2 µg/mL (≈ 1.38 µM)
[2]; Staphylococcus epidermidis MSSE 12-15
  MIC: 2 µg/mL (≈ 1.38 µM)
[2]; Staphylococcus epidermidis MSSE 12-16
  MIC: 0.5 µg/mL (≈ 0.345 µM)
[2]; Staphylococcus epidermidis MSSE 12-17
  MIC: 0.5 µg/mL (≈ 0.345 µM)
[2]; Staphylococcus epidermidis MSSE 12-18
  MIC: 0.25 µg/mL (≈ 0.173 µM)
[2]; Staphylococcus epidermidis MSSE 12-19
  MIC: 1 µg/mL (≈ 0.69 µM)
[2]; Staphylococcus epidermidis MSSE 12-20
  MIC: 1 µg/mL (≈ 0.69 µM)
Enterococcus faecalis; ATCC29212, Enterococcus faecalis ATCC 29212
  MIC: 2 µg/mL (≈ 1.38 µM)
Enterococcus faecalis; ATCC51299, Enterococcus faecalis (high endurance) ATCC 51299
  MIC: 2 µg/mL (≈ 1.38 µM)
Enterococcus faecalis; Enterococcus faecalis 12-11
  MIC: > 128 µg/mL
Enterococcus faecalis; Enterococcus faecalis 12-12
  MIC: 1 µg/mL (≈ 0.69 µM)
Enterococcus faecalis; Enterococcus faecalis 12-13
  MIC: 2 µg/mL (≈ 1.38 µM)
Enterococcus faecalis; Enterococcus faecalis 12-14
  MIC: 1 µg/mL (≈ 0.69 µM)
Enterococcus faecalis; Enterococcus faecalis 12-17
  MIC: 2 µg/mL (≈ 1.38 µM)
Enterococcus faecalis; Enterococcus faecalis 12-18
  MIC: 1 µg/mL (≈ 0.69 µM)
Enterococcus faecalis; Enterococcus faecalis 12-19
  MIC: 2 µg/mL (≈ 1.38 µM)
Enterococcus faecalis; Enterococcus faecalis 12-20
  MIC: 2 µg/mL (≈ 1.38 µM)
Enterococcus faecalis; Enterococcus faecalis 12-21
  MIC: 1 µg/mL (≈ 0.69 µM)
Enterococcus faecalis; Enterococcus faecalis 12-22
  MIC: 1 µg/mL (≈ 0.69 µM)
Enterococcus faecium; ATCC33186, Enterococcus faecium ATCC 33186
  MIC: 1 µg/mL (≈ 0.69 µM)
Enterococcus faecium; Enterococcus faecium 12-7
  MIC: 0.5 µg/mL (≈ 0.345 µM)
Enterococcus faecium; Enterococcus faecium 12-8
  MIC: 0.5 µg/mL (≈ 0.345 µM)
Enterococcus faecium; Enterococcus faecium 12-9
  MIC: 1 µg/mL (≈ 0.69 µM)
Enterococcus faecium; Enterococcus faecium 12-10
  MIC: 4 µg/mL (≈ 2.76 µM)
Enterococcus faecium; Enterococcus faecium 12-11
  MIC: 0.5 µg/mL (≈ 0.345 µM)
Enterococcus faecium; Enterococcus faecium 12-12
  MIC: 1 µg/mL (≈ 0.69 µM)
Enterococcus faecium; Enterococcus faecium 12-13
  MIC: 4 µg/mL (≈ 2.76 µM)
Enterococcus faecium; Enterococcus faecium 12-14
  MIC: 0.5 µg/mL (≈ 0.345 µM)
Enterococcus faecium; Enterococcus faecium 12-15
  MIC: 1 µg/mL (≈ 0.69 µM)
Enterococcus faecium; Enterococcus faecium 12-16
  MIC: 1 µg/mL (≈ 0.69 µM)
[3]; ATCC 43300 / MRSA, Methicillin-resistant Staphylococcus aureus ATCC 43300
  MIC: 1 µg/mL (≈ 0.69 µM)
[3]; MRSA, Staphylococcus aureus MRSA 12-11
  MIC: 2 µg/mL (≈ 1.38 µM)
[3]; MRSA, Staphylococcus aureus MRSA 12-12
  MIC: 1 µg/mL (≈ 0.69 µM)
[3]; MRSA, Staphylococcus aureus MRSA 12-13
  MIC: 1 µg/mL (≈ 0.69 µM)
[3]; MRSA, Staphylococcus aureus MRSA 12-14
  MIC: 1 µg/mL (≈ 0.69 µM)
[3]; MRSA, Staphylococcus aureus MRSA 12-15
  MIC: 1 µg/mL (≈ 0.69 µM)
[3]; MRSA, Staphylococcus aureus MRSA 12-16
  MIC: 2 µg/mL (≈ 1.38 µM)
[3]; MRSA, Staphylococcus aureus MRSA 12-17
  MIC: 1 µg/mL (≈ 0.69 µM)
[3]; MRSA, Staphylococcus aureus MRSA 12-18
  MIC: 1 µg/mL (≈ 0.69 µM)
[3]; MRSA, Staphylococcus aureus MRSA 12-19
  MIC: 2 µg/mL (≈ 1.38 µM)
[3]; MRSA, Staphylococcus aureus MRSA 12-20
  MIC: 1 µg/mL (≈ 0.69 µM)
[4]; Staphylococcus epidermidis MRSE 12-11
  MIC: 8 µg/mL (≈ 5.52 µM)
[4]; Staphylococcus epidermidis MRSE 12-12
  MIC: 0.5 µg/mL (≈ 0.345 µM)
[4]; Staphylococcus epidermidis MRSE 12-15
  MIC: 2 µg/mL (≈ 1.38 µM)
[4]; Staphylococcus epidermidis MRSE 12-16
  MIC: 2 µg/mL (≈ 1.38 µM)
[4]; Staphylococcus epidermidis MRSE 12-17
  MIC: 2 µg/mL (≈ 1.38 µM)
[4]; Staphylococcus epidermidis MRSE 12-18
  MIC: 2 µg/mL (≈ 1.38 µM)
[4]; Staphylococcus epidermidis MRSE 12-19
  MIC: 2 µg/mL (≈ 1.38 µM)
[4]; Staphylococcus epidermidis MRSE 12-20
  MIC: 2 µg/mL (≈ 1.38 µM)
[4]; Staphylococcus epidermidis MRSE 12-21
  MIC: 2 µg/mL (≈ 1.38 µM)
[4]; Staphylococcus epidermidis MRSE 12-22
  MIC: 1 µg/mL (≈ 0.69 µM)
[5]
  MIC: 1 µg/mL (≈ 0.69 µM)
Staphylococcus aureus
  MIC: 0.5 µg/mL (≈ 0.345 µM)
[6]; 10 animals
  Survival number: 10
[6]
  Survial rate (%): 100%
